Patent US12552758B2, “Inhibitors of MLH1 and/or PMS2 for cancer treatment” (NeoPhore Limited, priority 2020, dated 2026)

Legend:
[1] = target: recombinant N-terminal MLH1 (residues 15-340) (Homo sapiens (Human), UniProt P40692); test: Fluorescence polarisation assay for MLH1 (protocol for all Examples except Examples 64, 76, 90 and 95); format: binding; details: FP probe displacement; 100 nM N-terminal MLH1, 5 nM probe compound, read after 15 minutes; all Examples except 64, 76, 90 and 95
Protocol: Fluorescence Polarisation Assay for MLH1 (Protocol for all Examples Except Examples 64, 76, 90 and 95)
(§1) Test compounds, as 10 mM DMSO stocks, were dispensed into a Black Fluotrac 200 384 well medium binding plate (Greiner Bio-One, item number 781076) using a Labcyte Echo acoustic liquid handler. For single point screening, test compounds were added to wells in columns 1-22 whilst DMSO was added to wells in columns 23 and 24 in order to normalise the plate. For potency determination, serial dilutions of test compounds were added to wells in columns 3-22 and DMSO volume was normalised across the plate.
20 μL assay buffer was added to all wells in columns 1 and 24 (column 24 only for single point screening) using a MultiDrop Combi (ThermoFisher). Plates were centrifuged for 1 minute at 250×g and were incubated at room temperature for 30 minutes prior to the addition of 20 μL of 2×(10 nM) of 5-((5-(4-((2-(2,4-dihydroxy-5-isopropylbenzoyl)isoindolin-5-yl)methyl)piperazin-1-yl)pentyl)carbamoyl)-2-(6-(dimethylamino)-3-(dimethyliminio)-3H-xanthen-9-yl)benzoate (referred to hereinafter as “probe compound”) in assay buffer (prepared from a 100 μM DMSO stock) with a MultiDrop Combi (ThermoFisher). The final concentration of N-terminal MLH1 was 100 nM and the final concentration of probe compound was 5 nM.
(§2) Compound plates were centrifuged for 1 minute at 250×g for 1 minute and were incubated at room temperature for 15 minutes before being read on a PheraStar FSX (fitted with 384-well aperture spoon and 540 590 590 FP optic module). The gain and focus were adjusted before each plate was read so that the polarisation of a no enzyme control (column 24) was equal to 35 mP. Data were normalised against the no inhibitor controls (column 23) and no enzyme controls (column 24).

[2] = target: recombinant N-terminal PMS2 (residues 1-365) (Homo sapiens (Human), UniProt P54278); test: Fluorescence polarisation assay for PMS2; format: binding; details: FP probe displacement; 10 nM N-terminal PMS2, 5 nM probe compound, read after 1 hour
Sequence of recombinant N-terminal PMS2 (residues 1-365) (P54278 1-365): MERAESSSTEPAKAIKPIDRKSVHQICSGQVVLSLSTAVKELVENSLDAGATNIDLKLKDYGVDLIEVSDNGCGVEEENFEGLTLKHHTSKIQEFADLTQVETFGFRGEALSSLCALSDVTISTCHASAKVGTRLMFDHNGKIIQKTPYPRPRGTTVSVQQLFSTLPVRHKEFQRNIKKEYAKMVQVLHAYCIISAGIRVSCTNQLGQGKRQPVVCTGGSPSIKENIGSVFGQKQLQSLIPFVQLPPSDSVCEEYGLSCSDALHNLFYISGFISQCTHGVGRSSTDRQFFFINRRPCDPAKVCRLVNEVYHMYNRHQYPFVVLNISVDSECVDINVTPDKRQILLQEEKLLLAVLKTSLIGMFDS
Protocol: Fluorescence Polarisation Assay for PMS2
as §1
20 μL assay buffer was added to all wells in columns 1 and 24 (column 24 only for single point screening) using a MultiDrop Combi (ThermoFisher). Plates were centrifuged for 1 minute at 250×g and were incubated at room temperature for 30 minutes prior to the addition of 20 μL of 2×([…]) of 5-((5-(4-((2-(2,4-dihydroxy-5-isopropylbenzoyl)isoindolin-5-yl)methyl)piperazin-1-yl)pentyl)carbamoyl)-2-(6-(dimethylamino)-3-(dimethyliminio)-3H-xanthen-9-yl)benzoate (referred to hereinafter as “probe compound”) in assay buffer (prepared from a 100 μM DMSO stock) with a MultiDrop Combi (ThermoFisher). The final concentration of N-terminal PMS2 was 10 nM and the final concentration of probe compound was 5 nM.
as §2, with “1 hour” for “15 minutes”

Sequence of recombinant N-terminal MLH1 (residues 15-340) (P40692 15-340): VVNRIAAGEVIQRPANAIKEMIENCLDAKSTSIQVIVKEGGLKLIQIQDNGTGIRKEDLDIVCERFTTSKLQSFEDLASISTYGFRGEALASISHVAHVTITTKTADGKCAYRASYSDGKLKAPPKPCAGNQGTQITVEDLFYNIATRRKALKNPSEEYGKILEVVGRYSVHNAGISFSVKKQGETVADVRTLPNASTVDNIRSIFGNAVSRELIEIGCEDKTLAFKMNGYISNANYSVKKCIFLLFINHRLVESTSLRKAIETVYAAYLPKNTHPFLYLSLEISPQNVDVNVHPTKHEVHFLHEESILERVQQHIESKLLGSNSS

Compound	IC50 [1] [µM]	IC50 [2] [µM]
Cc1cccc(COc2cc(O)cc(O)c2C(=O)N2Cc3cccnc3C2)c1 [Example 32, 5,7-dihydropyrrolo[3,4-b]pyridin-6-yl-[2,4-dihydroxy-6-(m-tolylmethoxy)phenyl]methanone]	1 to 10	< 1
Cc1c(O)cc(O)c(C(=O)N2Cc3cccnc3C2)c1OCc1ccccn1 [Example 33, 5,7-dihydropyrrolo[3,4-b]pyridin-6-yl-[4,6-dihydroxy-3-methyl-2-(2-pyridylmethoxy)phenyl]methanone]	> 10	1 to 10
Cc1c(O)cc(O)c(C(=O)N2Cc3ccccc3C2)c1OCc1ccccn1 [Example 34, [4,6-dihydroxy-3-methyl-2-(2-pyridylmethoxy)phenyl]-isoindolin-2-yl-methanone]	> 10	1 to 10
O=C(c1c(O)cc(O)cc1OCc1ccccn1)N1Cc2cccnc2C1 [Example 35, 5,7-dihydropyrrolo[3,4-b]pyridin-6-yl-[2,4-dihydroxy-6-(2-pyridylmethoxy)phenyl]methanone]	1 to 10	1 to 10
O=C(c1c(O)cc(O)cc1OCc1ccccn1)N1Cc2ccccc2C1 [Example 37, [2,4-dihydroxy-6-(2-pyridylmethoxy)phenyl]-isoindolin-2-yl-methanone]	1 to 10	1 to 10
Cc1c(O)cc(O)c(C(=O)N2Cc3cccc(CO)c3C2)c1OCc1ccccc1 [Example 39, (2-benzyloxy-4,6-dihydroxy-3-methyl-phenyl)-[4-(hydroxymethyl)isoindolin-2-yl]methanone]	> 10	< 1
Cc1c(O)cc(O)c(C(=O)N2Cc3ccc(CN4CCN(C)CC4)cc3C2)c1OCc1ccccc1 [Example 40, (2-benzyloxy-4,6-dihydroxy-3-methyl-phenyl)-[5-[(4-methylpiperazin-1-yl)methyl]isoindolin-2-yl]methanone]	> 10	< 1
COc1ccc2c(c1)CCN(C(=O)c1c(O)cc(O)c(C)c1OCc1ccccn1)C2 [Example 47, [4,6-dihydroxy-3-methyl-2-(2-pyridylmethoxy)phenyl]-(6-methoxy-3,4-dihydro-1H-isoquinolin-2-yl)methanone]	> 10	> 10
CN1CCN(Cc2ccc3c(c2)CN(C(=O)c2c(O)cc(O)cc2OCc2ccccc2)C3)CC1 [Example 49, (2-(benzyloxy)-4,6-dihydroxyphenyl)(5-((4-methylpiperazin-1-yl)methyl)isoindolin-2-yl)methanone]	1 to 10	< 1
Cc1c(O)cc(O)c(C(=O)N2Cc3cccc(N)c3C2)c1OCc1ccccc1 [Example 50, (4-aminoisoindolin-2-yl)(2-(benzyloxy)-4,6-dihydroxy-3-methylphenyl)methanone]	> 10	< 1
C=Cc1cccc2c1CN(C(=O)c1c(O)cc(O)c(C)c1OCc1ccccc1)C2 [Example 51, (2-(benzyloxy)-4,6-dihydroxy-3-methylphenyl)(4-vinylisoindolin-2-yl)methanone]	> 10	< 1
Cc1c(O)cc(O)c(C(=O)N2CCc3cccnc3C2)c1OCc1ccccc1 [Example 53, (2-(benzyloxy)-4,6-dihydroxy-3-methylphenyl)(5,8-dihydro-1,7-naphthyridin-7(6H)-yl)methanone]	> 10	1 to 10
Cc1c(O)cc(O)c(C(=O)N2CCc3ncccc3C2)c1OCc1ccccc1 [Example 54, (2-(benzyloxy)-4,6-dihydroxy-3-methylphenyl)(7,8-dihydro-1,6-naphthyridin-6(5H)-yl)methanone]	> 10	1 to 10
Cc1c(O)cc(O)c(C(=O)N2CCc3ncncc3C2)c1OCc1ccccc1 [Example 55, (2-(benzyloxy)-4,6-dihydroxy-3-methylphenyl)(7,8-dihydropyrido[4,3-d]pyrimidin-6(5H)-yl)methanone]	> 10	1 to 10
Cc1c(O)cc(O)c(C(=O)N2CCc3cncnc3C2)c1OCc1ccccc1 [Example 56, (2-(benzyloxy)-4,6-dihydroxy-3-methylphenyl)(5,8-dihydropyrido[3,4-d]pyrimidin-7(6H)-yl)methanone]	> 10	1 to 10
Cc1c(O)cc(O)c(C(=O)N2CCc3ccccc3C2)c1OCc1ccn(C)n1 [Example 57, (3,4-dihydroisoquinolin-2(1H)-yl)(4,6-dihydroxy-3-methyl-2-((1-methyl-1H-pyrazol-3-yl)methoxy)phenyl)methanone]	> 10	> 10
O=C(c1c(O)cc(O)cc1OCc1ccccc1)N1CCc2ccccc2C1 [Example 58, (2-(benzyloxy)-4,6-dihydroxyphenyl)(3,4-dihydroisoquinolin-2(1H)-yl)methanone]	1 to 10	1 to 10
Cc1c(O)cc(O)c(C(=O)N2Cc3ccccc3C2)c1OCc1ccccc1 [Example 59, (2-(benzyloxy)-4,6-dihydroxy-3-methylphenyl)(isoindolin-2-yl)methanone]	> 10	< 1
Cc1c(O)cc(O)c(C(=O)N2Cc3ccccc3C[C@H]2CO)c1OCc1ccccc1 [Example 62, (S)-(2-(Benzyloxy)-4,6-dihydroxy-3-methylphenyl)(3-(hydroxymethyl)-3,4-dihydroisoquinolin-2(1H)-yl)methanone]	> 10	1 to 10

Second part, the compound after the results:

IC50 [1] [µM]	IC50 [2] [µM]	Compound
> 10	< 1	Cc1c(O)cc(O)c(C(=O)N2CCc3ccccc3C2)c1OCc1ccccc1 [Example 36, (2-benzyloxy-4,6-dihydroxy-3-methyl-phenyl)-(3,4-dihydro-1H-isoquinolin-2-yl)methanone]
> 10	< 1	COc1ccc2c(c1)CCN(C(=O)c1c(O)cc(O)c(C)c1OCc1ccccc1)C2 [Example 41, (2-benzyloxy-4,6-dihydroxy-3-methyl-phenyl)-(6-methoxy-3,4-dihydro-1H-isoquinolin-2-yl)methanone]
> 10	1 to 10	Cc1c(O)cc(O)c(C(=O)N2CCc3ccncc3C2)c1OCc1ccccc1 [Example 42, (2-benzyloxy-4,6-dihydroxy-3-methyl-phenyl)-(3,4-dihydro-1H-2,7-naphthyridin-2-yl)methanone]
> 10	1 to 10	Cc1c(O)cc(O)c(C(=O)N2CCc3cnccc3C2)c1OCc1ccccc1 [Example 43, (2-benzyloxy-4,6-dihydroxy-3-methyl-phenyl)-(3,4-dihydro-1H-2,6-naphthyridin-2-yl)methanone]
> 10	< 1	Cc1cccc(COc2c(C)c(O)cc(O)c2C(=O)N2CCc3ccccc3C2)c1 [Example 44, 3,4-dihydro-1H-isoquinolin-2-yl-[4,6-dihydroxy-3-methyl-2-(m-tolylmethoxy)phenyl]methanone]
> 10	< 1	Cc1c(O)cc(O)c(C(=O)N2CCc3ccccc3C2)c1OCc1ccc(F)cc1 [Example 48, 3,4-dihydro-1H-isoquinolin-2-yl-[2-[(4-fluorophenyl)methoxy]-4,6-dihydroxy-3-methyl-phenyl]methanone]
> 10	< 1	COc1ccc2c(c1)CN(C(=O)c1c(O)cc(O)c(C)c1OCc1ccccc1)CC2 [Example 52, (2-(benzyloxy)-4,6-dihydroxy-3-methylphenyl)(7-methoxy-3,4-dihydroisoquinolin-2(1H)-yl)methanone]
> 10	< 1	Cc1c(O)cc(O)c(C(=O)N2CCc3ccc(CN(C)C)cc3C2)c1OCc1ccccc1 [Example 60, (2-(benzyloxy)-4,6-dihydroxy-3-methylphenyl)(7-((dimethylamino)methyl)-3,4-dihydroisoquinolin-2(1H)-yl)methanone]
> 10	< 1	Cc1c(O)cc(O)c(C(=O)N2CCc3cc(CN(C)C)ccc3C2)c1OCc1ccccc1 [Example 61, (2-(benzyloxy)-4,6-dihydroxy-3-methylphenyl)(6-((dimethylamino)methyl)-3,4-dihydroisoquinolin-2(1H)-yl)methanone]
